Laboratory results reported in US12421252B2, “Spiro (isobenzofuranazetidine) compounds for the treatment of autoimmune disease” (Hoffmann-La Roche Inc., priority 2020, dated 2025).

Target: T1, human TLR8 (Homo sapiens, UniProt Q9NR97)
T1 sequence (Q9NR97 27-1041): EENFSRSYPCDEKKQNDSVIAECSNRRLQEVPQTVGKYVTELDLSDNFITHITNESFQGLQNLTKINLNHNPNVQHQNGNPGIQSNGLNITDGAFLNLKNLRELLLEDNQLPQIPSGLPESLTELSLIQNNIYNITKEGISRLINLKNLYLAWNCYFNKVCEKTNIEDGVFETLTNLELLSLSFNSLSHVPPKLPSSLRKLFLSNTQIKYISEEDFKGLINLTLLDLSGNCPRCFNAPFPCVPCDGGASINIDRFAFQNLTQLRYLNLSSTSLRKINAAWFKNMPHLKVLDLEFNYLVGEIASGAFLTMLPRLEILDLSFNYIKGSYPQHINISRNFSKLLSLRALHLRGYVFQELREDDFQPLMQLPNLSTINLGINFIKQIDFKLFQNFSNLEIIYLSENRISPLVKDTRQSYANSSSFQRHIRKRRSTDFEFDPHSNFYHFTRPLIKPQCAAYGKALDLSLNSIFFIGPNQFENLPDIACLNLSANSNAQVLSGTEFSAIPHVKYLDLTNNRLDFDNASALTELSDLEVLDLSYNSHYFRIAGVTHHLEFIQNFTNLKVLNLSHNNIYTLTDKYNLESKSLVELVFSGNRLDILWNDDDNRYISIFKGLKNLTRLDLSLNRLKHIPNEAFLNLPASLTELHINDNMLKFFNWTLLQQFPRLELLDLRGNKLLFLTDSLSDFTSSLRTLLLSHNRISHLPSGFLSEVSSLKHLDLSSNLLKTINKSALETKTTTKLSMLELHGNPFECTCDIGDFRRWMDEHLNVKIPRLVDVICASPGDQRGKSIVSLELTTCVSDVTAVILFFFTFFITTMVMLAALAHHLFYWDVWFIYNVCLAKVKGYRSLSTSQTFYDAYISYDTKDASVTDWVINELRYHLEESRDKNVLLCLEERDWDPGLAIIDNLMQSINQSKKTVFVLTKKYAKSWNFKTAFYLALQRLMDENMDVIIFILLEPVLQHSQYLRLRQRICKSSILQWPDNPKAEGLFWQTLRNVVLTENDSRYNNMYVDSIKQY
Test: HEK293-Blue-hTLR-8 cells assay
Assay type: cell-based
Conditions: HEK293-Blue-hTLR8 cells, R848 stimulation, 20 hrs, SEAP reporter; read-out: HEK/hTLR8 IC50
Text: HEK293-Blue-hTLR-8 cells assay:
A stable HEK293-Blue-hTLR-8 cell line was purchased from InvivoGen (Cat. #: hkb-htlr8, San Diego, California, USA). These cells were originally designed for studying the stimulation of human TLR8 by monitoring the activation of NF-κB. A SEAP (secreted embryonic alkaline phosphatase) reporter gene was placed under the control of the IFN-β minimal promoter fused to five NF-κB and AP-1-binding sites. The SEAP was induced by activating NF-κB and AP-1 via stimulating HEK-Blue hTLR8 cells with TLR8 ligands. Therefore the reporter expression was declined by TLR8 antagonist under the stimulation of a ligand, such as R848, for incubation of 20 hrs. The cell culture supernatant SEAP reporter activity was determined using QUANTI-Blue™kit (Cat. #: rep-qb1, Invivogen, San Diego, Ca, USA) at a wavelength of 640 nm, a detection medium that turns purple or blue in the presence of alkaline phosphatase.
HEK293-Blue-hTLR8 cells were incubated at a density of 250,000˜450,000 cells/mL in a volume of 170 μL in a 96-well plate in Dulbecco's Modified Eagle's medium (DMEM) containing 4.5 g/L glucose, 50 U/mL penicillin, […], […], 2 mM L-glutamine, 10% (v/v) heat-inactivated fetal bovine serum with addition of 20 μL test compound in a serial dilution in the presence of final DMSO at 1% and 10 μL of 60 uM R848 in above DMEM, perform incubation under 37° C. in a CO2 incubator for 20 hrs. Then 20 μL of the supernatant from each well was incubated with 180 μL Quanti-blue substrate solution at 37° C. for 2 hrs and the absorbance was read at 620-655 nm using a spectrophotometer. The signaling pathway that TLR8 activation leads to downstream NF-κB activation has been widely accepted, and therefore similar reporter assay was modified for evaluating TLR8 antagonist.

| IC50 | Compound |
| --- | --- |
| 82 nM | C[C@@H]1CN(c2ccc(C#N)n3ncc(F)c23)C[C@H](CN2CC3(C2)OCc2cc(N4CC(C)(N)C4)ccc23)O1 [Example 1, 4-[(2S,6R)-2-[[6-(3-amino-3-methyl-azetidin-1-yl)spiro[1H-isobenzofuran-3,3′-azetidine]-1′-yl]methyl]-6-methyl-morpholin-4-yl]-3-fluoro-pyrazolo[1,5-a]pyridine-7-carbonitrile] |
| 24 nM | C[C@@H]1CN(c2ccc(C#N)n3ncc(F)c23)C[C@H](CN2CC3(C2)OCc2cc(N4CC(C)(N)C4)cnc23)O1 [Example 33, 4-[(2S,6R)-2-[[3-(3-amino-3-methyl-azetidin-1-yl)spiro[5H-furo[3,4-b]pyridine-7,3′-azetidine]-1′-yl]methyl]-6-methyl-morpholin-4-yl]-3-fluoro-pyrazolo[1,5-a]pyridine-7-carbonitrile] |
| 64 nM | C[C@@H]1CN(c2ccc(C#N)n3ncc(F)c23)C[C@H](CN2CC3(C2)OCc2cc(N4CC5(CN(C)C5)C4)cnc23)O1 [Example 22, 3-fluoro-4-[(2R,6S)-2-methyl-6-[[3-(6-methyl-2,6-diazaspiro[3.3]heptan-2-yl)spiro[5H-furo[3,4-b]pyridine-7,3′-azetidine]-1′-yl]methyl]morpholin-4-yl]pyrazolo[1,5-a]pyridine-7-carbonitrile] |
| 25 nM | C[C@@H]1CN(c2ccc(C#N)n3ncc(F)c23)C[C@H](CN2CC3(C2)OCc2cc(N4CC5(CN(C)C5)C4)ccc23)O1 [Example 2, 3-fluoro-4-[(2R,6S)-2-methyl-6-[[6-(6-methyl-2,6-diazaspiro[3.3]heptan-2-yl)spiro[1H-isobenzofuran-3,3′-azetidine]-1′-yl]methyl]morpholin-4-yl]pyrazolo[1,5-a]pyridine-7-carbonitrile] |
| 51 nM | C[C@@H]1CN(c2ccc(C#N)n3ncc(F)c23)C[C@H](CN2CC3(C2)OCc2cc(N[C@H]4CNC[C@H]4F)ccc23)O1 [Example 3, 3-fluoro-4-[(2S,6R)-2-[[6-[[(3S,4R)-4-fluoropyrrolidin-3-yl]amino]spiro[1H-isobenzofuran-3,3′-azetidine]-1′-yl]methyl]-6-methyl-morpholin-4-yl]pyrazolo[1,5-a]pyridine-7-carbonitrile] |
| 37 nM | C[C@@H]1CN(c2ccc(C#N)n3ncc(F)c23)C[C@H](CN2CC3(C2)OCc2cc(N4CC5(CNC5)C4)ccc23)O1 [Example 12, 4-[(2S,6R)-2-[[6-(2,6-diazaspiro[3.3]heptan-2-yl)spiro[1H-isobenzofuran-3,3′-azetidine]-1′-yl]methyl]-6-methyl-morpholin-4-yl]-3-fluoro-pyrazolo[1,5-a]pyridine-7-carbonitrile] |
| 99 nM | C[C@@H]1CN(c2ccc(C#N)n3nccc23)C[C@H](CN2CC3(C2)OCc2cc(N4CC(N)C4)ccc23)O1 [Example 19, 4-[(2S,6R)-2-[[6-(3-aminoazetidin-1-yl)spiro[1H-isobenzofuran-3,3′-azetidine]-1′-yl]methyl]-6-methyl-morpholin-4-yl]pyrazolo[1,5-a]pyridine-7-carbonitrile] |
| 22 nM | C[C@@H]1CN(c2ccc(C#N)n3ncc(F)c23)C[C@H](CN2CC3(C2)OCc2cc(N4CC[C@](C)(N)C4)ccc23)O1 [Example 5, 4-[(2S,6R)-2-[[6-[(3S)-3-amino-3-methyl-pyrrolidin-1-yl]spiro[1H-isobenzofuran-3,3′-azetidine]-1′-yl]methyl]-6-methyl-morpholin-4-yl]-3-fluoro-pyrazolo[1,5-a]pyridine-7-carbonitrile] |

Continued, compound first:

| Compound | IC50 |
| --- | --- |
| C[C@@H]1CN(c2ccc(C#N)n3nccc23)C[C@H](CN2CC3(C2)OCc2cc(N4CC(C)(N)C4)ncc23)O1 [Example 25, 4-[(2S,6R)-2-[[6-(3-amino-3-methyl-azetidin-1-yl)spiro[1H-furo[3,4-c]pyridine-3,3′-azetidine]-1′-yl]methyl]-6-methyl-morpholin-4-yl]pyrazolo[1,5-a]pyridine-7-carbonitrile] | 120 nM |
| C[C@@H]1CN(c2ccc(C#N)n3nccc23)C[C@H](CN2CC3(C2)OCc2cc(N4CC(C)(N)C4)cnc23)O1 [Example 26, 4-[(2S,6R)-2-[[3-(3-amino-3-methyl-azetidin-1-yl)spiro[5H-furo[3,4-b]pyridine-7,3′-azetidine]-1′-yl]methyl]-6-methyl-morpholin-4-yl]pyrazolo[1,5-a]pyridine-7-carbonitrile] | 234 nM |
| [2H]c1ccc2c(N3C[C@H](CN4CC5(C4)OCc4cc(N6CCNCC6)ccc45)O[C@H](C)C3)ccc(C#N)c2n1 [Example 18, 2-deuterio-5-[(2R,6S)-2-methyl-6-[(6-piperazin-1-ylspiro[1H-isobenzofuran-3,3′-azetidine]-1′-yl)methyl]morpholin-4-yl]quinoline-8-carbonitrile] | 10 nM |
| C[C@@H]1CN(c2cc(=O)n(C)c3ncccc23)C[C@H](CN2CC3(C2)OCc2cc(N4CC(N)C4)ccc23)O1 [Example 13, 4-[(2S,6R)-2-[[6-(3-aminoazetidin-1-yl)spiro[1H-isobenzofuran-3,3′-azetidine]-1′-yl]methyl]-6-methyl-morpholin-4-yl]-1-methyl-1,8-naphthyridin-2-one] | 409 nM |
| [2H]c1ccc2c(N3C[C@H](CN4CC5(C4)OCc4cc(N6C[C@@H](N)[C@H](OC)C6)ccc45)O[C@H](C)C3)ccc(C#N)c2n1 [Example 16, 5-[(2S,6R)-2-[[6-[(3R,4R)-3-amino-4-methoxy-pyrrolidin-1-yl]spiro[1H-isobenzofuran-3,3′-azetidine]-1′-yl]methyl]-6-methyl-morpholin-4-yl]-2-deuterio-quinoline-8-carbonitrile] | 13 nM |
| C[C@@H]1CN(c2ccc(C#N)n3nccc23)C[C@H](CN2CC3(C2)OCc2cc(N4CC5(CNCCO5)C4)ccc23)O1 [Example 7, 4-[(2R,6S)-2-methyl-6-[[6-(5-oxa-2,8-diazaspiro[3.5]nonan-2-yl)spiro[1H-isobenzofuran-3,3′-azetidine]-1′-yl]methyl]morpholin-4-yl]pyrazolo[1,5-a]pyridine-7-carbonitrile] | 58 nM |
| [2H]c1ccc2c(N3C[C@H](CN4CC5(C4)OCc4cc(N6CC(C)(N)C6)cnc45)O[C@H](C)C3)ccc(C#N)c2n1 [Example 21, 5-[(2S,6R)-2-[[3-(3-amino-3-methyl-azetidin-1-yl)spiro[5H-furo[3,4-b]pyridine-7,3′-azetidine]-1′-yl]methyl]-6-methyl-morpholin-4-yl]-2-deuterio-quinoline-8-carbonitrile] | 17 nM |
| [2H]c1ccc2c(N3C[C@H](CN4CC5(C4)OCc4cc(N6C[C@@H](N)[C@H](OC)C6)cnc45)O[C@H](C)C3)ccc(C#N)c2n1 [Example 31, 5-[(2S,6R)-2-[[3-[(3R,4R)-3-amino-4-methoxy-pyrrolidin-1-yl]spiro[5H-furo[3,4-b]pyridine-7,3′-azetidine]-1′-yl]methyl]-6-methyl-morpholin-4-yl]-2-deuterio-quinoline-8-carbonitrile] | 30 nM |
| [2H]c1ccc2c(N3C[C@H](CN4CC5(C4)OCc4cc(N6C[C@H]7NCCO[C@@H]7C6)ccc45)O[C@H](C)C3)ccc(C#N)c2n1 [Example 17, 5-[(2S,6R)-2-[[6-[(4aR,7aR)-3,4,4a,5,7,7a-hexahydro-2H-pyrrolo[3,4-b][1,4]oxazin-6-yl]spiro[1H-isobenzofuran-3,3′-azetidine]-1′-yl]methyl]-6-methyl-morpholin-4-yl]-2-deuterio-quinoline-8-carbonitrile] | 9 nM |
